Patent publication US5210193A, “Piperazine derivatives” (American Cyanamid Company, priority 1990, dated 1993)
Values after ≈ are worked out from the molar mass of the structure shown. Read-outs that look alike come from different tables or passages of the source.

What was measured:
Assay in all cases: in vitro antibacterial MIC, agar plate dilution
Type in all cases: cell-based
Settings in all cases: 35° C.
[1] = tested on: Serratia marcescens VGH 84-30
Experimental: (§1) The in vitro antimicrobial spectrum of the compounds of ths invention were determined by the agar plate dilution method with Mueller-Hinton agar and an inoculum of each test organism of approximately 10^4 colony forming units delivered by the Steers replicating device. The minimal inhibitory concentration (MIC) in mcg/ml is defined as the lowest concentration of test compound that inhibited visible growth after 18 hours incubation at 35° C. Results are given in Table I, with the test compounds identified by the number of their hereinafter described examples.

[2] = tested on: Pseudomonas aeruginosa VGH 84-4
Experimental: as §1

[3] = tested on: Pseudomonas aeruginosa LL-1244
Experimental: as §1

[4] = tested on: Proteus rettgeri CMC 84-41
Experimental: as §1

[5] = tested on: Staphylococcus aureus ATTC 29213
Experimental: as §1

Escherichia coli LL 311 = tested on: Escherichia coli LL 311
Experimental: as §1

[6] = tested on: Escherichia coli CMC 84-11
Experimental: as §1

[7] = tested on: Morganella morganii CMC 84-37
Experimental: as §1

[8] = tested on: Streptococcus faecalis UCI 85-19
Experimental: as §1

[9] = tested on: Staphylococcus aureus VGH 84-45
Experimental: as §1

[10] = tested on: Staphylococcus aureus Smith
Experimental: as §1

[11] = tested on: Serratia marcescens K 84-18
Experimental: as §1

[12] = tested on: Escherichia coli ATCC 25922
Experimental: as §1

[13] = tested on: Streptococcus faecalis VGH 84-65
Experimental: as §1

[14] = Serratia marcescens, VGH8430, 18 h, read-out: MIC
[15] = Pseudomonas aeruginosa, VGH844, 18 h, read-out: MIC
[16] = Pseudomonas aeruginosa, LL1244, 18 h, read-out: MIC
[17] = Providencia rettgeri, CMC8441, 18 h, read-out: MIC
[18] = Staphylococcus aureus, ATTC29213, 18 h, read-out: MIC
[19] = Escherichia coli, LL311, 18 h, read-out: MIC
[20] = Escherichia coli, CMC8411, 18 h, read-out: MIC
[21] = Morganella morganii, CMC8437, 18 h, read-out: MIC
[22] = Enterococcus faecalis, UCI8519, 18 h, read-out: MIC
[23] = Staphylococcus aureus, VGH8445, 18 h, read-out: MIC
[24] = Staphylococcus aureus, 18 h, read-out: MIC
[25] = Serratia marcescens, K8418, 18 h, read-out: MIC
[26] = Escherichia coli, ATCC25922, 18 h, read-out: MIC
[27] = Enterococcus faecalis, VGH8465, 18 h, read-out: MIC

CCn1cc(C(=O)O)c(=O)c2cc(F)c(N3CCN(C)C(CF)C3)c(F)c21 (single isomer, unassigned; (+)) [Example 115, (+)-1-Ethyl-6,8-difluoro-7-[3-(fluoromethyl)-4-methyl-1-piperazinyl]-1,4-dihydro-4-oxo-3-quinolinecarboxylic acid]
MIC ([1]; 18 hours): 32 µg/mL (≈ 83.5 µM) | MIC ([2]; 18 hours): 8 µg/mL (≈ 20.9 µM) | MIC ([3]; 18 hours): 16 µg/mL (≈ 41.7 µM) | MIC ([4]; 18 hours): 2 µg/mL (≈ 5.22 µM) | MIC ([5]; 18 hours): 8 µg/mL (≈ 20.9 µM) | MIC (Escherichia coli LL 311; 18 hours): 0.5 µg/mL (≈ 1.3 µM) | MIC ([6]; 18 hours): 0.5 µg/mL (≈ 1.3 µM) | MIC ([7]; 18 hours): 1 µg/mL (≈ 2.61 µM) | MIC ([8]; 18 hours): 8 µg/mL (≈ 20.9 µM) | MIC ([9]; 18 hours): 0.5 µg/mL (≈ 1.3 µM) | MIC ([10]; 18 hours): 0.5 µg/mL (≈ 1.3 µM) | MIC ([11]; 18 hours): 2 µg/mL (≈ 5.22 µM) | MIC ([12]; 18 hours): 0.25 µg/mL (≈ 0.652 µM) | MIC ([13]; 18 hours): 8 µg/mL (≈ 20.9 µM)

COCC1CN(c2cc3c(cc2F)c(=O)c(C(=O)O)cn3C2CC2)CCN1 (stereo not drawn) [Example 81, 1-Cyclopropyl-6-fluoro-1,4-dihydro-7-[3-(methoxymethyl)-1-pioerazinyl]-4-oxo-3-quinolinecarboxylic acid]
MIC [1, 14]: 4 µg/mL (≈ 10.7 µM) | MIC [2, 15]: 2 µg/mL (≈ 5.33 µM) | MIC [3, 16]: 8 µg/mL (≈ 21.3 µM) | MIC [4, 17]: 0.12 µg/mL (≈ 0.32 µM) | MIC [5, 18]: 0.25 µg/mL (≈ 0.666 µM) | MIC (Escherichia coli LL 311; [19]): 0.03 µg/mL (≈ 0.0799 µM) | MIC [6, 20]: 0.03 µg/mL (≈ 0.0799 µM) | MIC [7, 21]: 0.06 µg/mL (≈ 0.16 µM) | MIC [8, 22]: 2 µg/mL (≈ 5.33 µM) | MIC [9, 23]: 0.12 µg/mL (≈ 0.32 µM) | MIC [10, 24]: 0.12 µg/mL (≈ 0.32 µM) | MIC [11, 25]: 0.5 µg/mL (≈ 1.33 µM) | MIC [12, 26]: 0.25 µg/mL (≈ 0.666 µM) | MIC [13, 27]: 2 µg/mL (≈ 5.33 µM)

COCC1CN(c2cc3c(cc2F)c(=O)c(C(=O)O)cn3-c2ccc(F)cc2)CCN1 (stereo not drawn) [Example 82, 6-Fluoro-1-(4-fluorophenyl)-1,4-dihydro-7-(3-(methoxy-methyl)-1-piperazinyl]-4-oxo-3-cuinolinecarboxylic acid]
MIC [1, 14]: 16 µg/mL (≈ 37.3 µM) | MIC [2, 15]: 8 µg/mL (≈ 18.6 µM) | MIC [3, 16]: 32 µg/mL (≈ 74.5 µM) | MIC [4, 17]: 1 µg/mL (≈ 2.33 µM) | MIC [5, 18]: 0.5 µg/mL (≈ 1.16 µM) | MIC (Escherichia coli LL 311; [19]): 0.25 µg/mL (≈ 0.582 µM) | MIC [6, 20]: 0.12 µg/mL (≈ 0.279 µM) | MIC [7, 21]: 1 µg/mL (≈ 2.33 µM) | MIC [8, 22]: 8 µg/mL (≈ 18.6 µM) | MIC [9, 23]: 0.12 µg/mL (≈ 0.279 µM) | MIC [10, 24]: 0.12 µg/mL (≈ 0.279 µM) | MIC [11, 25]: 2 µg/mL (≈ 4.66 µM) | MIC [12, 26]: 0.25 µg/mL (≈ 0.582 µM) | MIC [13, 27]: 8 µg/mL (≈ 18.6 µM)

O=C(O)c1cn(C2CC2)c2cc(N3CCNC(COc4ccccc4)C3)c(F)cc2c1=O (stereo not drawn) [Example 83, 1-Cyclopropyl-6-fluoro-1,4-dihydro-4-oxo-7-[3-(phenoxymethyl)-1-piperazinyl]-3-quinolinecarboxylic acid]
MIC [1, 14]: 4 µg/mL (≈ 9.14 µM) | MIC [2, 15]: 4 µg/mL (≈ 9.14 µM) | MIC [3, 16]: 32 µg/mL (≈ 73.1 µM) | MIC [4, 17]: 0.25 µg/mL (≈ 0.571 µM) | MIC [5, 18]: 0.25 µg/mL (≈ 0.571 µM) | MIC (Escherichia coli LL 311; [19]): 0.12 µg/mL (≈ 0.274 µM) | MIC [6, 20]: 0.06 µg/mL (≈ 0.137 µM) | MIC [7, 21]: 0.12 µg/mL (≈ 0.274 µM) | MIC [8, 22]: 2 µg/mL (≈ 4.57 µM) | MIC [9, 23]: 0.03 µg/mL (≈ 0.0686 µM) | MIC [10, 24]: 0.06 µg/mL (≈ 0.137 µM) | MIC [11, 25]: 0.5 µg/mL (≈ 1.14 µM) | MIC [12, 26]: 0.12 µg/mL (≈ 0.274 µM) | MIC [13, 27]: 2 µg/mL (≈ 4.57 µM)

O=C(O)c1cn(-c2ccc(F)cc2)c2cc(N3CCNC(COc4ccccc4)C3)c(F)cc2c1=O (stereo not drawn) [Example 84, 1-(4-Fluorophenvl)-6-fluoro-1,4-dihydro-4-oxo-7-[3-(phenoxymethyl)-1-piperazinyl]-3-quinolinecarboxylic acid]
MIC [1, 14]: > 128 µg/mL | MIC [2, 15]: 32 µg/mL (≈ 65.1 µM) | MIC [3, 16]: > 128 µg/mL | MIC [4, 17]: 1 µg/mL (≈ 2.03 µM) | MIC [5, 18]: 1 µg/mL (≈ 2.03 µM) | MIC (Escherichia coli LL 311; [19]): 1 µg/mL (≈ 2.03 µM) | MIC [6, 20]: 1 µg/mL (≈ 2.03 µM) | MIC [7, 21]: 2 µg/mL (≈ 4.07 µM) | MIC [8, 22]: 32 µg/mL (≈ 65.1 µM) | MIC [9, 23]: 0.25 µg/mL (≈ 0.509 µM) | MIC [10, 24]: 0.25 µg/mL (≈ 0.509 µM) | MIC [11, 25]: 32 µg/mL (≈ 65.1 µM) | MIC [12, 26]: 1 µg/mL (≈ 2.03 µM) | MIC [13, 27]: 32 µg/mL (≈ 65.1 µM)

CCn1cc(C(=O)O)c(=O)c2c(F)c(F)c(N3CCNC(c4ccsc4)C3)c(F)c21 (stereo not drawn) [Example 90, 1-Ethyl-5,6,8-trifluoro-1,4-dihydro-4-oxo-7-[3-(3-thienyl)-1-piperazinyl]-3-quinolinecarboxylic acid]
MIC [1, 14]: 16 µg/mL (≈ 36.6 µM) | MIC [2, 15]: 16 µg/mL (≈ 36.6 µM) | MIC [3, 16]: 32 µg/mL (≈ 73.2 µM) | MIC [4, 17]: 1 µg/mL (≈ 2.29 µM) | MIC [5, 18]: 1 µg/mL (≈ 2.29 µM) | MIC (Escherichia coli LL 311; [19]): 0.25 µg/mL (≈ 0.572 µM) | MIC [6, 20]: 0.25 µg/mL (≈ 0.572 µM) | MIC [7, 21]: 0.25 µg/mL (≈ 0.572 µM) | MIC [8, 22]: 8 µg/mL (≈ 18.3 µM) | MIC [9, 23]: 0.25 µg/mL (≈ 0.572 µM) | MIC [10, 24]: 0.25 µg/mL (≈ 0.572 µM) | MIC [11, 25]: 1 µg/mL (≈ 2.29 µM) | MIC [12, 26]: 0.25 µg/mL (≈ 0.572 µM) | MIC [13, 27]: 8 µg/mL (≈ 18.3 µM)

CCn1cc(C(=O)O)c(=O)c2c(F)c(F)c(N3CCNC(C)C3)c(F)c21 (stereo not drawn) [Example 91, 1-Ethyl-5,6,8-trifluoro-1,4-dihydro-7-(3-methyl-1-piperazinyl)-4-oxo-3-quinolinecarboxylic acid]
MIC [1, 14]: 16 µg/mL (≈ 43.3 µM) | MIC [2, 15]: 8 µg/mL (≈ 21.7 µM) | MIC [3, 16]: 8 µg/mL (≈ 21.7 µM) | MIC [4, 17]: 0.25 µg/mL (≈ 0.677 µM) | MIC [5, 18]: 4 µg/mL (≈ 10.8 µM) | MIC (Escherichia coli LL 311; [19]): 0.25 µg/mL (≈ 0.677 µM) | MIC [6, 20]: 0.25 µg/mL (≈ 0.677 µM) | MIC [7, 21]: 0.12 µg/mL (≈ 0.325 µM) | MIC [8, 22]: 32 µg/mL (≈ 86.6 µM) | MIC [9, 23]: 2 µg/mL (≈ 5.42 µM) | MIC [10, 24]: 2 µg/mL (≈ 5.42 µM) | MIC [11, 25]: 0.5 µg/mL (≈ 1.35 µM) | MIC [12, 26]: 0.5 µg/mL (≈ 1.35 µM) | MIC [13, 27]: 32 µg/mL (≈ 86.6 µM)

O=C(O)c1cn(-c2ccc(F)cc2)c2cc(N3CCNC(c4ccsc4)C3)c(F)cc2c1=O (stereo not drawn) [Example 100]
MIC [1, 14]: 64 µg/mL (≈ 137 µM) | MIC [2, 15]: 8 µg/mL (≈ 17.1 µM) | MIC [3, 16]: 16 µg/mL (≈ 34.2 µM) | MIC [4, 17]: 1 µg/mL (≈ 2.14 µM) | MIC [5, 18]: 0.06 µg/mL (≈ 0.128 µM) | MIC (Escherichia coli LL 311; [19]): 0.25 µg/mL (≈ 0.535 µM) | MIC [6, 20]: 0.12 µg/mL (≈ 0.257 µM) | MIC [7, 21]: 0.5 µg/mL (≈ 1.07 µM) | MIC [8, 22]: 2 µg/mL (≈ 4.28 µM) | MIC [9, 23]: 0.03 µg/mL (≈ 0.0642 µM) | MIC [10, 24]: 0.008 µg/mL (≈ 0.0171 µM) | MIC [11, 25]: 4 µg/mL (≈ 8.56 µM) | MIC [12, 26]: 0.25 µg/mL (≈ 0.535 µM) | MIC [13, 27]: 2 µg/mL (≈ 4.28 µM)

CCn1cc(C(=O)O)c(=O)c2cc(F)c(N3CCNC(c4ccccn4)C3)c(F)c21 (stereo not drawn) [Example 116]
MIC [1, 14]: 8 µg/mL (≈ 19.3 µM) | MIC [2, 15]: 4 µg/mL (≈ 9.65 µM) | MIC [3, 16]: 8 µg/mL (≈ 19.3 µM) | MIC [4, 17]: 0.5 µg/mL (≈ 1.21 µM) | MIC [5, 18]: 2 µg/mL (≈ 4.83 µM) | MIC (Escherichia coli LL 311; [19]): 0.12 µg/mL (≈ 0.29 µM) | MIC [6, 20]: 0.06 µg/mL (≈ 0.145 µM) | MIC [7, 21]: 0.25 µg/mL (≈ 0.603 µM) | MIC [8, 22]: 2 µg/mL (≈ 4.83 µM) | MIC [9, 23]: 0.12 µg/mL (≈ 0.29 µM) | MIC [10, 24]: 0.12 µg/mL (≈ 0.29 µM) | MIC [11, 25]: 0.5 µg/mL (≈ 1.21 µM) | MIC [12, 26]: 0.06 µg/mL (≈ 0.145 µM) | MIC [13, 27]: 2 µg/mL (≈ 4.83 µM)
